In ChEMBL document CHEMBL1135974 (J Med Chem, 2002):
Blank lines part the entries; values can stand above or below the compound they belong to. The source made the active and inactive calls. The calls are words filed in the database; no cut-off is given here.

Assays:
[1] = biological target: Adrenergic receptor alpha-1 (Sus scrofa); assay: […] from porcine Alpha-1 adrenergic receptor; format: protein assay
D(4) dopamine receptor = biological target: T1, D(4) dopamine receptor (Homo sapiens, UniProt P21917)
T1 sequence (P21917 whole entry): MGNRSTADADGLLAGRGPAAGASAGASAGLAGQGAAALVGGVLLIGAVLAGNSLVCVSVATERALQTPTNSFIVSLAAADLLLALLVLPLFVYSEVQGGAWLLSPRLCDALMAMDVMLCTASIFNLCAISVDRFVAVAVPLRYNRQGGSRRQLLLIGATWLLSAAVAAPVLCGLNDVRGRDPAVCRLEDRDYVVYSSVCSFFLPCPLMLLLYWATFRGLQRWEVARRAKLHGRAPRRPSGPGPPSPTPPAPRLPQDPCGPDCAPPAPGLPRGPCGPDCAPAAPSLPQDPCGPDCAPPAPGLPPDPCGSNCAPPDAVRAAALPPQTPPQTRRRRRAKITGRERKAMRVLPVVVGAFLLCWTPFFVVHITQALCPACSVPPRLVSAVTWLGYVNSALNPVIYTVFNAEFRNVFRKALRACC
Description: Binding affinity for human Dopamine receptor D4 by [3H]- spiperone displacement.

D(2) dopamine receptor [2] = biological target: T2, D(2) dopamine receptor (Homo sapiens, UniProt P14416)
Description: Binding affinity for human Dopamine receptor D2 (long) by [3H]- spiperone displacement.

D(2) dopamine receptor [3] = biological target: T2, D(2) dopamine receptor; remark: listed apart in the source
Description: Binding affinity for human Dopamine receptor D2 (short) by [3H]- spiperone displacement.

D(3) dopamine receptor [4] = biological target: T3, D(3) dopamine receptor (Homo sapiens, UniProt P35462)
Description: Binding affinity for human Dopamine receptor D3 by [3H]- spiperone displacement.

D(3) dopamine receptor [5] = biological target: T3, D(3) dopamine receptor; details: Cricetulus griseus; CHO
[6] = biological target: 5-HT2 receptor (Sus scrofa); assay: Binding affinity for porcine 5-hydroxytryptamine 2 receptor using [3H]- ketanserin
D(3) dopamine receptor [7] = biological target: T3, D(3) dopamine receptor; assay: Rate of [3H]thymidine uptake compared to quinpirole (100%) in Dopamine receptor D3 expressing CHO cells; format: functional, cell-based; details: Cricetulus griseus
D(3) dopamine receptor [8] = biological target: T3, D(3) dopamine receptor; details: Cricetulus griseus; CHO; remark: listed apart in the source

T3 sequence (P35462 whole entry): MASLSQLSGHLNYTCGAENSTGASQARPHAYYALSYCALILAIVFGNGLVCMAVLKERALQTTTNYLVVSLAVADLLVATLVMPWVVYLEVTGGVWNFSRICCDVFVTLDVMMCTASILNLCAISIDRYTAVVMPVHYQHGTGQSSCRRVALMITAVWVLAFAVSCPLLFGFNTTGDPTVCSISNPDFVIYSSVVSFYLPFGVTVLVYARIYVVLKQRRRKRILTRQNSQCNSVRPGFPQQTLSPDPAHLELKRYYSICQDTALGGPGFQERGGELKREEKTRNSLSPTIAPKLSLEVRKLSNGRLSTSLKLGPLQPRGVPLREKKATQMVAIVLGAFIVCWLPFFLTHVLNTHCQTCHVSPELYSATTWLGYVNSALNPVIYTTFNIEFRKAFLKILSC
T2 sequence (P14416 whole entry): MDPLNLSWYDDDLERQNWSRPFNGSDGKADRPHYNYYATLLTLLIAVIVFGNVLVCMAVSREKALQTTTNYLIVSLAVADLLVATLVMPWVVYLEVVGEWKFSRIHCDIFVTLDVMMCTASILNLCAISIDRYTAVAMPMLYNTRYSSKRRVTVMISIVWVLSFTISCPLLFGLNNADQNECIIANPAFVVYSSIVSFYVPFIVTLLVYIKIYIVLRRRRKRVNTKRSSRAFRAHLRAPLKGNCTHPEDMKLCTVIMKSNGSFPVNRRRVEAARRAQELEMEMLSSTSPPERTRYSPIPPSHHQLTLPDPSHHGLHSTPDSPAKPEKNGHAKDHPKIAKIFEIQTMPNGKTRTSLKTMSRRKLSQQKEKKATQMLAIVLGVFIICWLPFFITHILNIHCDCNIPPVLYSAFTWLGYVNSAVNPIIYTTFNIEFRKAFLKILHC

SMILES: O=C(NCCCCN1CCN(c2cccc(Cl)c2Cl)CC1)c1cc2ccccc2[te]1
- Ki [1]: > 1000 nM
- Ki (D(4) dopamine receptor): 150 nM
- Ki (D(2) dopamine receptor [2]): 91 nM
- Ki (D(2) dopamine receptor [3]): 48 nM
- Ki (D(3) dopamine receptor [4]): 0.55 nM
- NE (D(3) dopamine receptor [5]): inactive
- Ki [6]: 730 nM

- Effect (D(3) dopamine receptor [7]): 52%
SMILES: COc1ccccc1N1CCN(CCCCNC(=O)c2cc3ccccn3n2)CC1

- NE (D(3) dopamine receptor [5]): inactive
SMILES: O=C(NCCCCN1CCN(c2cccc(Cl)c2Cl)CC1)c1cc2ccccc2s1

SMILES: COc1ccccc1N1CCN(CCCCNC(=O)c2cc3ccccc3[te]2)CC1
- NE (D(3) dopamine receptor [5]): inactive

- Effect (D(3) dopamine receptor [8]): inactive
SMILES: O=C(NCCCCN1CCN(c2cccc(Cl)c2Cl)CC1)c1cc2ccccc2o1
